For data set [1], the system named is microcirculation of the skin. The data set is described as follows: Laser Doppler capillary blood flow in human female subjects, 10,000 ppm NO in closed chamber (Example 5). The data set is classed as in vivo. To be noted: applied to skin at 1/10% in alcohol. An excerpt: The formulation used in these studies contained nitric oxide dispersed in a lipid matrix. […] Nitric oxide is a very rapid acting molecule, and these studies used a system that employed laser Doppler with a covered chamber. The formulation was placed into the chamber and then attached to the skin by an adhesive layer on the covering. This provided a stable measuring device as determined by multiple normal evaluations of the capillary blood flow without treatment of nitric oxide.
A known positive control, methyl nicotinate, was applied to the skin at a concentration of 1/10% in alcohol. […] The vascular dynamics are such that when the blood vessels dilate physical parameters follow Bernoulli's law. This states that as one increases the diameter of a tube containing a liquid to flow will increase but the pressure and the speed of the liquid will decrease. The laser Doppler device accurately measured these parameters.
The test product was labeled as 10,000 ppm NO (nitric oxide). The study participants had 100 mg of the test product applied in a closed Hilltop chamber on the forearm. […]
A Moor Instruments DRT4 Laser Doppler Blood Flow Monitor (Devon, England) was used in these studies. The laser Doppler technique measured blood flow in the microcapillaries of the skin that are close to the skin surface and the blood flow in underlying arterioles and venules that help to regulate skin temperature. […]

Data set [2] deals with cutaneous vascular system. Nature of the data set: Laser Doppler circulation in five human subjects, 10,000 ppm NO formulation (Example 8). The data set is classed as in vivo. The settings on record: positive control formulation containing 0.1% methyl nicotinate. An excerpt: This example illustrates delivery of nitric oxide formulations to five human subjects, using procedures and formulations similar to those discussed in Example 5. Each person served as their own control for the testing. A Moor Instruments Laser Doppler was used to determine circulation. […] The formulations used produce positive, almost immediate results when applied to the skin which, in these studies, was manifested by vasodilatation of the cutaneous vascular system.
For each subject, the following creams were applied: a negative control formulation (containing no NO), 0.010 gram of a 10,000 ppm NO formulation, 0.020 gram of a 10,000 ppm NO formulation, and a positive control formulation containing 0.1% methyl nicotinate. The formulations were prepared using procedures similar to those discussed in Example 1.

The nature of data set [3]: Interaction of nitric oxide with carriers, weight gain on bubbling NO gas (Example 2). To be noted: NO bubbled 40 hr, 25° C. It is filed as physicochemical. How it is done: In this example, six experiments were carried out to investigate the interaction of nitric oxide with three carriers (HNC 157-62, HNC 157-65, and HNC 157-69) as well as with 1,3-propanediol, using experimental conditions similar to that described for Example 1. In addition three experiments were performed to prepare carriers containing 800 ppm and 500 ppm nitric oxide. HNC 157-62 was formed of 65% Phospholipon-90G (American Lecithin Company), 18% isopropyl palmitate (Kraft Chemicals), 8% capric caprylic triglycerides (RITA Corp.), and 9% propanediol (Dupont). HNC 157-65 was formed of 65% Phospholipon-90G, 13% isopropyl palmitate, 14% capric caprylic triglycerides, 3% propanediol, and 5% dimethyl isosorbide (Croda). HNC 157-69 was formed from 65% Phospholipon-90G, 16% isopropyl palmitate, and 19% capric caprylic triglycerides.
The compositions were generally prepared as follows. Isopropyl palmitate, capric caprylic triglyceride, propanediol (for HNC 157-62 and HNC 157-65), and dimethyl isosorbide (for HNC 157-65) were mixed together and warmed to 40° C. Phospholipon-90G was then gradually added to this liquid mixture by mixing it. Phospholipon-90G is typically received as individual pellets, and is mixed into the solution until fully dissolved. The mixture was subsequently filtered through a sieve to remove any undissolved Phospholipon-90G. […]

As for `COC(=O)c1cccnc1` [methyl nicotinate], in data set [1], the “laser Doppler response to positive control” value is on record as “rapid response typical of the vasodilator”. The “vasodilatation versus control untreated skin” value in data set [2] is on record as “vasodilatation was observed”.

Consider `OCCCO` [1,3-Propanediol, 1,3-propanediol], for which, in data set [3], the “% Wt. gain” value is 0.09% and the “Wt. Gain” value stood at 0.16 g.

The values are drawn from US9844506B2, “Compositions and methods for affecting mood states” (priority 2013, dated 2017).
